Test results reported in patent US7419984B2, “Pyrimidines and uses thereof” (Cell Therapeutics, Inc., priority 2002, dated 2008).

Molecular target: T1, human LPAAT-β (Homo sapiens, UniProt O15120)
T1 construct: the full-length human LPAAT-β cDNA was amplified by PCR; poly-histidine tag (N); made in house; host or cells: Sf9 insect cells (baculovirus, pFastBac HTc); the membrane fraction was used as the enzyme
T1 sequence (O15120 24-278): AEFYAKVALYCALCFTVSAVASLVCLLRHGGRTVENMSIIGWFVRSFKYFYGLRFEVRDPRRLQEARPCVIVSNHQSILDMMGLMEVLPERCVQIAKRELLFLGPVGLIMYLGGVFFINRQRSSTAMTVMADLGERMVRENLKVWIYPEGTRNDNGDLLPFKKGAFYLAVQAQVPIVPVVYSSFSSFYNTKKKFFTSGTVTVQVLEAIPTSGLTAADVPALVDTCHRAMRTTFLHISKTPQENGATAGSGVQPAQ
Assay: LPAAT-β cell-free assay
Assay type: biochemical
Conditions: Sf9 cell membrane overexpressing recombinant LPAAT-β
Procedure, shortened: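 Membranes from Sf9 cells expressing His/myc-tagged full-length human LPAAT-β were used in HEPES-saline pH 7.5 with 1 mg/ml BSA. Compound was added from a 200 μM DMSO stock, and reaction with 18:1-CoA and sn-1-18:1 lysoPA (1 mM stocks) ran 25 min at RT. Released CoA was detected with DTNB at 405 nm; a radiometric variant used 200 μM [14C]18:1-CoA and 200 μM lysoPA.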

SMILES | IC50
CCOc1ccc(Cl)cc1-c1cc(Nc2ccc([N+](=O)[O-])cc2)nc(N)n1 [Example 46, 6-(5-Chloro-2-ethoxy-phenyl)-N*4*-(4-nitro-phenyl)-pyrimidine-2,4-diamine] | 10 nM
Nc1nc(Nc2ccc(Br)cc2)cc(-c2cc(Cl)ccc2Cl)n1 [Example 14, N*4*-(4-Bromo-phenyl)-6-(2,5-dichloro-phenyl)-pyrimidine-2,4-diamine] | 26 nM
Cc1ccc(F)cc1-c1cc(Nc2ccc(C(F)(F)F)cc2)nc(N)n1 [Example 76, 6-(5-Fluoro-2-methyl-phenyl)-N*4*-(4-trifluoromethyl-phenyl)-pyrimidine-2,4-diamine] | 710 nM
CCOc1ccc(Cl)cc1-c1cc(Nc2ccc(S(N)(=O)=O)cc2)nc(N)n1 [Example 96, 4-[2-Amino-6-(5-chloro-2-ethoxy-phenyl)-pyrimidin-4-ylamino]-benzenesulfonamide] | 73 nM
Nc1nc(Nc2ccc3cn[nH]c3c2)cc(-c2cc(Cl)ccc2Cl)n1 [Example 19, 6-(2,5-Dichloro-phenyl)-N*4*-(1H-indazol-6-yl)-pyrimidine-2,4-diamine] | 27 nM
COc1ccc(Cl)cc1-c1cc(Nc2ccc(C#N)cc2)nc(N)n1 [Example 45, 4-[2-Amino-6-(5-chloro-2-methoxy-phenyl)-pyrimidin-4-ylamino]-benzonitrile] | 33 nM
CCOc1ccc(Br)cc1-c1cc(Nc2ccc(F)cc2)ncn1 [Example 192, [6-(5-Bromo-2-ethoxy-phenyl)-pyrimidin4-yl]-(4-fluoro-phenyl)-amine] | 60 nM
CCOc1ccc(Cl)cc1-c1cc(Nc2ccc(CCCC(=O)O)cc2)nc(N)n1 [Example 95, 4-{4-[2-Amino-6-(5-chloro-2-ethoxy-phenyl)-pyrimidin4-ylamino]-phenyl}-butyric acid] | 310 nM
Nc1nc(Nc2ccc(Cl)cc2)cc(-c2ccccc2Oc2ccccc2)n1 [Example 152, N*4*-(4-Chloro-phenyl)-6-(2-phenoxy-phenyl)-pyrimidin-2,4-diamine] | 240 nM
CC(=NO)c1ccc(Nc2cc(-c3cc(Cl)ccc3C)nc(N)n2)cc1 [Example 104, 1-{4-[2-Amino-6-(5-chloro-2-methyl-phenyl)-pyrimidin-4-ylamino]-phenyl}-ethanone-oxime] | 160 nM
Nc1nc(Nc2ccc(C(F)(F)F)cc2)cc(-c2cc(Br)ccc2Cl)n1 [Example 189, 6-(5-Bromo-2-chloro-phenyl)-N*4*-(4-trifluoromethyl-phenyl)-pyrimidine-2,4-diamine] | 79 nM
Cc1ccc(Br)cc1-c1cc(Nc2ccc(N=[N+]=[N-])cc2)nc(N)n1 [Example 81, [6-(5-Bromo-2-methyl-phenyl)-(4-azido-phenyl)-pyrimidine]-2,4-diamine] | 190 nM
COc1ccc(Cl)cc1-c1cc(Nc2ccc(Cl)cc2)nc(N)n1 [Example 2, 6-(5-Chloro-2-methoxy-phenyl)-N*4*-(4-chloro-phenyl)-pyrimidine-2,4-diamine] | 54 nM
CCOc1ccc(Cl)cc1-c1cc(Nc2ccc(COC(=O)CCC(=O)O)cc2)nc(N)n1 [Example 63, Succinic acid mono-{4-[2-amino-6-(5-chloro-2-ethoxy-phenyl)-pyrimidin-4-ylamino]-benzyl}-ester] | 83 nM
COc1ccc(Nc2cc(-c3cc(Cl)ccc3OC)nc(N)n2)cc1 [Example 7, 6-(5-Chloro-2-methoxy-phenyl)-N*4*-(4-methoxy-phenyl)-pyrimidine-2,4-diamine] | 410 nM
Cc1ccc(Cl)cc1-c1cc(Nc2ccc(Br)cc2)ncn1 [Example 172, (4-Bromo-phenyl)-[6-(5-chloro-2-methyl-phenyl)-pyrimidin-4-yl]-amine] | 45 nM
Cc1nc(Nc2ccc(Cl)cc2)cc(-c2cc(Cl)ccc2C)n1 [Example 42, [6-(5-Chloro-2-methyl-phenyl)-2-methyl-pyrimidin-4-yl]-(4-chloro-phenyl)-amine] | 10 nM
Cc1ccc(Cl)cc1-c1cc(Nc2ccc(C(F)(F)F)nc2)nc(N)n1 [Example 126, 6-(5-chloro-2-methylphenyl)-N*4*-(6-trifluoromethylpyridin-3-yl)pyrimidine-2,4-diamine] | 500 nM
Nc1nc(Nc2ccc(Cl)cc2)cc(-c2cccc(Cl)c2Cl)n1 [Example 118, 6-(2,3-Dichloro-phenyl)-N*4*-(4-chloro-phenyl)-pyrimidine-2,4-diamine] | 710 nM
Cc1ccc(Br)cc1-c1cc(Nc2ccc(Br)cc2)nc(N)n1 [Example 85, 6-(5-Bromo-2-methyl-phenyl)-N*4*-(4-bromo-phenyl)-pyrimidine-2,4-diamine] | 18 nM

SMILES | IC50
CCOc1ccc(Br)cc1-c1cc(Nc2ccc(B(O)O)cc2)nc(N)n1 [Example 159, 4-[2-Amino-6-(5-bromo-2-ethoxy-phenyl)-pyrimidin-4-ylamino]-phenyl-boronic acid] | 200 nM
Cc1ccc(Cl)cc1-c1cc(Nc2ccc(CCO)cc2)nc(N)n1 [Example 49, 2-{4-[2-Amino-6-(5-chloro-2-methyl-phenyl)-pyrimidin4-ylamino]-phenyl}-ethanol] | 49 nM
Nc1nc(Nc2ccc(Cl)cc2)cc(-c2cc(Br)ccc2OCc2ccc(Cl)cc2)n1 [Example 165, 6-[5-Bromo-2-(4-chloro-benzyloxy)-phenyl]-N*4*-(4-chloro-phenyl)-pyrimidine-2,4-diamine] | 3 nM
Cc1ccc(Cl)cc1-c1cc(Nc2ccc(CCO)cc2)ncn1 [Example 176, 2-{4-[6-(5-Chloro-2-methyl-phenyl)-pyrimidin-4-ylamino]-phenyl}-ethanol] | 60 nM
COc1ccc(Cl)cc1-c1cc(Nc2ccc(Br)cc2)nc(N)n1 [Example 5, N*4*-(4-Bromo-phenyl)-6-(5-chloro-2-methoxy-phenyl)-pyrimidine-2,4-diamine] | 29 nM
COc1ccc(Cl)cc1-c1nc(N)cc(Nc2ccc(Br)cc2)n1 [Example 36, N-(4-Bromo-phenyl)-2-(5-chloro-2-methoxy-phenyl)-pyrimidine4,6-diamine] | 8000 nM
CCOc1ccc(Br)cc1-c1cc(Nc2ccc(Br)cc2)ncn1 [Example 181, [6-(5-Bromo-2-ethoxy-phenyl)-pyrimidin-4-yl]-(4-bromo-phenyl)-amine] | 40 nM
Nc1nc(Nc2ccc(C(F)(F)F)cc2)cc(-c2cc(Br)ccc2OCc2ccccc2)n1 [Example 153, 6-(2-Benzyloxy-5-bromo-phenyl)-N*4*-(4-trifluoromethyl-phenyl)-pyrimidine-2,4-diamine] | 6 nM
CCOc1ccc(Cl)cc1-c1cc(Nc2ccc(CCCO)cc2)nc(N)n1 [Example 92, 3-{4-[2-Amino-6-(5-chloro-2-ethoxy-phenyl)-pyrimidin4-ylamino]-phenyl}-propan-1-ol] | 230 nM
COc1ccc(Cl)cc1-c1cc(Nc2ccc(C(F)(F)F)cc2)nc(N)n1 [Example 4, 6-(5-Chloro-2-methoxy-phenyl)-N*4*-(4-trifluoromethylphenyl)-pyrimidine-2,4-diamine] | 88 nM
Cc1nc(Nc2ccc(Br)cc2)cc(-c2cc(Cl)ccc2C)n1 [Example 41, [6-(5-Chloro-2-methyl-phenyl)-2-methyl-pyrimidin-4-yl]-(4-bromo-phenyl)-amine] | 21 nM
Nc1nc(Nc2ccc(CCO)cc2)cc(-c2cc(Cl)ccc2Cl)n1 [Example 48, 2-{4-[2-Amino-6-(2,5-dichloro-phenyl)-pyrimidin4-ylamino]-phenyl}-ethanol] | 28 nM
Nc1nc(Nc2ccc(Cl)cc2)cc(-c2cc(Br)ccc2OCc2ccccc2)n1 [Example 146, 6-(2-Benzyloxy-5-bromo-phenyl)-N*4*-(4-chloro-phenyl)-pyrimidine-2,4-diamine] | 3 nM
COc1ccc(Cl)cc1-c1cc(Nc2ccc(CO)cc2)nc(N)n1 [Example 10, {4-[2-Amino-6-(5-chloro-2-methoxy-phenyl)-pyrimidin4-ylamino]-phenyl}-methanol] | 120 nM
Nc1nc(Nc2ccc(Br)cc2)cc(-c2cc(Br)ccc2OCC(F)(F)F)n1 [Example 91, N*4*-(4-Bromo-phenyl)-6-[5-bromo-2-(2,2,2-trifluoro-ethoxy)-phenyl]-pyrimidine-2,4-diamine] | 190 nM
CN(C)CCCOc1ccc(Br)cc1-c1cc(Nc2ccc(Cl)cc2)nc(N)n1 [Example 156, 6-[5-Bromo-2-(3-dimethylamino-propoxy)-phenyl]-N*4*-(4-chloro-phenyl)-pyrimidine-2,4-diamine] | 1400 nM
Nc1nc(Nc2ccc(C(F)(F)F)cc2)cc(-c2cc(Cl)cc(Cl)c2)n1 [Example 112, 6-(3,5-Dichloro-phenyl)-N*4*-(4-trifuoromethyl-phenyl)-pyrimidine-2,4-diamine] | 640 nM
Cc1ccc(Cl)cc1-c1cc(Nc2ccc(C(F)(F)F)cc2)nc(N)n1 [Example 29, 6-(5-Chloro-2-methyl-phenyl)-N*4*-(4-trifluoromethyl-phenyl)-pyrimidine-2,4-diamine] | 134 nM
CCOC(=O)c1cccc(Nc2cc(-c3cc(Cl)ccc3Cl)nc(N)n2)c1 [Example 170, 3-[2-Amino-6-(2,5-dichloro-phenyl)-pyrimidin-4-ylamino]-benzoic acid ethyl ester] | 24 nM
CCc1cccc(Nc2cc(-c3cc(Cl)ccc3C)nc(N)n2)c1 [Example 115, 6-(5-Chloro-2-methyl-phenyl)-N*4*-(3-ethyl-phenyl)-pyrimidine-2,4-diamine] | 210 nM
